According to patent US8853424B2 (Japan Science and Technology Agency, priority 2008, dated 2014):

Key:
[1] = system: transglutaminase (TGase); assay: Measurement of TG (TGase inhibitory activity, monodansyl cadaverine / N,N-dimethylcasein fluorescence, FDSS 3000); format: biochemical
Method: For example, the method described in the Example can be performed.
The compound of the present invention (10 mM, 1 μL) was taken in a 96-well plate (Nunc, 96 Well Black Plate with Clear Bottom), an enzyme reaction solution (100 mM HEPES-NaOH, pH 7.5, 1 mM CaCl2, 20 μM monodansyl cadaverine, 0.05 mg/mL N,N-dimethylcasein, 5 μg/mL TGase) (0.1 ml) was added and the mixture was sufficiently mixed without making foams. The mixture was set on a fluorescence drug screening system FDSS 3000 (Hamamatsu Photonics K.K.), and changes in the fluorescence wavelength per unit time at 340 nm were measured, based on which the TGase inhibitory activity of the compound of the present invention was calculated. As a control, change in the fluorescence when 1 μL of DMSO (dimethyl sulfoxide) was added instead of the compound of the present invention was taken as 100, and TG50 was when the activity decreased to half due to the compound of the present invention.

[2] = system: Truncated N-terminal huntington 150 Q-EGFP-Neuron 2a cells; assay: Measurement of x-Fold (polyglutamine aggregation inhibitory activity); format: cell-based
Method: In the present invention, the polyglutamine aggregation inhibitory activity (x-Fold) can be measured, for example, by the method described in the Example.
The number of the aggregated cells, and the total number of cells were counted by Array Scan V T1 (manufactured by Cellomics, Pittuburg, USA), and the ratio of the aggregated cells to the total number of cells was determined (x-Fold). […]

[3] = TGase activity with compound (10 mM, 1 μL in 0.1 ml enzyme reaction solution), DMSO control taken as 100
[4] = TGase inhibitory activity value, Table 1
[5] = polyglutamine aggregation inhibitory activity, Table 1
[6] = ratio of aggregated cells to total number of cells, compound 20 μM, 20 hr, almost 1 without compound, smaller = stronger inhibition
[7] = TGase inhibitory activity measurement, unit not given
[8] = polyglutamine aggregation, Truncated N-terminal huntington 150 Q-EGFP-Neuron 2a cells

| Compound | TGase activity remaining (% of DMSO control = 100) [1, 3] | TGase activity remaining (% of DMSO control = 100) [1, 4] | x-Fold [2, 5] | x-Fold [2, 6] | TGase activity remaining (% of DMSO control = 100) [1, 7] | x-Fold [2, 8] |
| --- | --- | --- | --- | --- | --- | --- |
| FC(F)(F)c1ccc(C(OB(c2ccccc2)c2ccc(COCc3ccc(B(OC(c4ccc(C(F)(F)F)cc4)c4ccccn4)c4ccc(COCc5ccc(B(OC(c6ccc(C(F)(F)F)cc6)c6ccccn6)c6ccccc6)cc5)cc4)cc3)cc2)c2ccccn2)cc1 (centres unmarked) [Example 192, bis((4,4′-phenyl 2-pyridyl-4-trifluoromethylphenylmethoxyboryl)benzyloxybenzyl) 2-pyridyl-4-trifluoromethyl phenylmethoxyborane] | 102 | 102 | 0.95 | 0.95 | – | – |
| NCCOB(c1ccccc1)c1ccc2sc3ccc(B(OCCN)c4ccccc4)cc3c2c1 [Example 408, 2,8-di(phenylaminoethoxyboryl)dibenzothiophene] | 108 | – | – | 0.92 | 108 | 0.92 |
| Cc1ccc(NCCOBc2ccc(COCc3ccc(BOCCNc4ccc(C)cc4)cc3)cc2)cc1 [Example 362, bis(4-(4-methylphenylaminoethoxyboryl)benzyl)ether] | 108 | 108 | 1.08 | 1.08 | – | – |
| NCCOB(c1ccc(COCc2ccc(B(OCCN)c3ccc(F)c(F)c3)cc2)cc1)c1ccc(F)c(F)c1 [Example 416, bis(4,4′-(3,4-difluorophenyl-aminoethoxyboryl)benzyl)ether] | 114 | – | – | 0.92 | 114 | 0.92 |
| FC(F)(F)c1ccc(C(OB(c2ccccc2)c2ccc(COCc3ccc(B(OC(c4ccc(C(F)(F)F)cc4)c4ccccn4)c4ccccc4)cc3)cc2)c2ccccn2)cc1 (centres unmarked) [Example 138, bis(2-pyridyl-4-trifluoromethylphenylmethoxyphenylboryl 4-benzyl)ether] | 96 | – | – | 0.99 | – | – |
| NC(CCC(=O)O)C(=O)OB(c1ccccc1)c1ccc(Oc2ccc(B(OC(=O)C(N)CCC(=O)O)c3ccc(CO)cc3)cc2)cc1 (centres unmarked) [Example 393, (4-(phenyl-glutamic acid boryl)phenyl)(4′-(hydroxymethylphenyl-glutamic acid boryl)phenyl)ether] | 117 | – | – | 0.56 | – | – |
| Cc1ccc(B(O)c2ccc(Oc3ccc(B(O)c4ccc(C)c(Cl)c4)cc3)cc2)cc1Cl [Example 251, bis(3-chloro-4-methylphenyl hydroxyborylphenyl)ether] | 121 | – | – | 0.83 | – | – |
| COc1ccc(C(OB(c2ccccc2)c2ccc(COc3ccc(B(OC(c4ccc(OC)cc4)c4ccccn4)c4ccccc4)cc3)cc2)c2ccccn2)cc1 (centres unmarked) [Example 430, 4-(phenyl-p-methoxyphenyl-2-pyridylmethoxyboryl)-phenyl 4′-(phenyl-p-methoxyphenyl-2-pyridylmethoxyboryl)benzylether] | 106 | – | – | 1.03 | 106 | 1.03 |
| NCCOB(c1ccccc1)c1ccccc1COCc1ccccc1B(OCCN)c1ccccc1 [Example 148, bis(2,2′-(phenyl-2-aminoethoxyboryl)benzyl)ether] | 68 | 68 | 1.00 | 1.00 | – | – |
| O=C(O)CC1[NH2+][B-](c2ccccc2)(c2ccccc2)OC1=O (centres unmarked) [Example 257] | 103 | 103 | 0.98 | 0.98 | – | – |
| OB(c1ccc(C(F)(F)F)cc1)c1c2ccccc2c(B(O)c2ccc(C(F)(F)F)cc2)c2ccccc12 [Example 374] | 17 | 17 | 1.14 | 1.14 | – | – |
